Data on two compounds can be found in ChEMBL document CHEMBL4507258 (2021).

Molecules are shown by their SMILES. pKi: −log10 of the molar value.

Data set [1] has as its target Beta-1 adrenergic receptor (Homo sapiens) (UniProt P08588). The conditions noted are these: Compound concentration 10.0 uM.
The next data set concerns the target Histamine H1 receptor (Homo sapiens, UniProt P35367). The experiment in a line: Histamine H1 receptor (central) CEREP ligand profiling. As to conditions: Compound concentration 10.0 uM; call rule not given here.
The target in data set [2] is Somatostatin receptor (Homo sapiens) (UniProt P35346+P30874+P31391+P30872+P32745). As to the kind of experiment: Somatostatin receptor CEREP ligand profiling. In kind it is protein assay. As to conditions: Compound concentration 10.0 uM.
Data set [3] addresses D(2) dopamine receptor (Homo sapiens) (UniProt P14416). The experiment in a line: Dopamine D2 receptor (h) CEREP ligand profiling. As to conditions: Compound concentration 10.0 uM.
In data set [4] the target is Tumor necrosis factor (Homo sapiens) (UniProt P01375). As to the kind of experiment: Tumor necrosis factor-alpha CEREP ligand profiling. As to conditions: Compound concentration 10.0 uM.
Sequence of Tumor necrosis factor (Homo sapiens) (P01375 whole entry): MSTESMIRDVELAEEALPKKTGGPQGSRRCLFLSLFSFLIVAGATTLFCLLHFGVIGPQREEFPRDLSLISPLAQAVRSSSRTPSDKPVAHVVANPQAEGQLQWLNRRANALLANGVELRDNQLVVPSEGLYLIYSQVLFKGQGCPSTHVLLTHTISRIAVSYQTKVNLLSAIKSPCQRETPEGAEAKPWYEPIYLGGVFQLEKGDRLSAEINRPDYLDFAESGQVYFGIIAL
Data set [5] has as its target Adenosine receptor A2a (Homo sapiens) (UniProt P29274). As to the kind of experiment: Adenosine A 2A receptor (h) CEREP ligand profiling. As to conditions: Compound concentration 10.0 uM.
The target in data set [6] is Platelet-derived growth factor receptor (Homo sapiens) (UniProt P09619+P16234). The experiment in a line: Platlet-derived growth factor receptor CEREP ligand profiling. Type of data set: protein-complex assay. As to conditions: Compound concentration 10.0 uM.
In data set [7] the target is Neuropeptide Y receptor type 2 (Homo sapiens) (UniProt P49146). As to the kind of experiment: Y2 receptor CEREP ligand profiling. As to conditions: Compound concentration 10.0 uM.
Sequence of Neuropeptide Y receptor type 2 (Homo sapiens) (P49146 whole entry): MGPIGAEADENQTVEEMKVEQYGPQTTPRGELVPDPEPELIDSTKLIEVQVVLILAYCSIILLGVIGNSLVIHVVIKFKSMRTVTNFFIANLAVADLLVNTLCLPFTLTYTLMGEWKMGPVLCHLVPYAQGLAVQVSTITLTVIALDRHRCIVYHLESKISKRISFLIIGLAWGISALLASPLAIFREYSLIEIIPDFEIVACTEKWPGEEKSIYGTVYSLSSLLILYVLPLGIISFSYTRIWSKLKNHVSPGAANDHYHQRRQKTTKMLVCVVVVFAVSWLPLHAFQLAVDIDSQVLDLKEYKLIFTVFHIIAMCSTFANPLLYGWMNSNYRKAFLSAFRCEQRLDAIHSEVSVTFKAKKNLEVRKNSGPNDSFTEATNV
Data set [8] has as its target D(3) dopamine receptor (Homo sapiens) (UniProt P35462). As to the kind of experiment: Dopamine D3 receptor (h) CEREP ligand profiling. The conditions noted are these: Compound concentration 10.0 uM.
The target in data set [9] is Neuromedin-K receptor (Homo sapiens) (UniProt P29371). As to the kind of experiment: NK3 tachykinin receptor (h) CEREP ligand profiling. As to conditions: Compound concentration 10.0 uM.
For data set [10], the target named is Serine/threonine-protein kinase DCLK1 (Homo sapiens, UniProt O15075). The experiment in a line: Inhibition of DCLK1 at compound concentration of 10.0 uM using the ScanMax (DiscoverX).
Sequence of Serine/threonine-protein kinase DCLK1 (O15075 whole entry): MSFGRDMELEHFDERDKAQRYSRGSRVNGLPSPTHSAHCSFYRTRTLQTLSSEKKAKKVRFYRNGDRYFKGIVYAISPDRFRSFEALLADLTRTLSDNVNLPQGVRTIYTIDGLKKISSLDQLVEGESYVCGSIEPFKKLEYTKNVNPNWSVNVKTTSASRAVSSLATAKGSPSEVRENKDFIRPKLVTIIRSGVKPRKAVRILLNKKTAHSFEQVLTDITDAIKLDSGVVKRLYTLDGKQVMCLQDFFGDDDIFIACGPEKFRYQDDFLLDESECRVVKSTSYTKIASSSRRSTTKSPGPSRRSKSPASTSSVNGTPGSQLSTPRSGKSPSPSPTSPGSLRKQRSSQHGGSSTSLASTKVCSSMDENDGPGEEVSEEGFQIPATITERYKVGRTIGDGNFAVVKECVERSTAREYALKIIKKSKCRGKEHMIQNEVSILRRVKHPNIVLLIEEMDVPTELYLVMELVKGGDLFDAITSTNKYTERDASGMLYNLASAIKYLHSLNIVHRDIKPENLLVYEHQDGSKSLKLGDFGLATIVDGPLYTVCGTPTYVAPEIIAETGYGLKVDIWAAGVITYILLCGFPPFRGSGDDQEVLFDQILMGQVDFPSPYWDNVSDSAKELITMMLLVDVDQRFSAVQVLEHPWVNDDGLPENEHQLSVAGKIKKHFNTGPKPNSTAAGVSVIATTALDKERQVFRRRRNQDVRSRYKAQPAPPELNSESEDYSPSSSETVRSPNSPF
The target of data set [11] is Neurotensin receptor (Homo sapiens) (UniProt O95665+P30989). The experiment in a line: Neurotensin receptor (h) CEREP ligand profiling. In kind it is protein assay. As to conditions: Compound concentration 10.0 uM.
Data set [12] has as its target Voltage-gated (volt-dependent) potassium channel (Homo sapiens, UniProt O43525+O43526+O95259+P16389+P17658+P22001+P22459+P22460+P48547+P51787+P56696+Q03721+Q09470+Q12809+Q14003+Q14721+Q16322+Q6PIU1+Q8NCM2+Q8TAE7+Q8TDN1+Q8TDN2+Q92953+Q96KK3+Q96L42+Q96PR1+Q96RP8+Q9BQ31+Q9H252+Q9H3M0+Q9NR82+Q9NS40+Q9NSA2+Q9NZV8+Q9UIX4+Q9UJ96+Q9UK17+Q9ULD8+Q9ULS6+Q9UQ05). As to the kind of experiment: K+ channel (volt-dependent) CEREP ligand profiling. Type of data set: protein assay. The conditions noted are these: compound concentration 10 uM.

Data set [13] concerns the target Calcitonin gene-related peptide type 1 receptor (Homo sapiens) (UniProt Q16602). The experiment in a line: Calcitonin gene-related peptide CEREP ligand profiling. As to conditions: Compound concentration 10.0 uM.
Data set [14] deals with Adrenergic receptor alpha-1 (Homo sapiens) (UniProt P35348+P25100+P35368). The experiment in a line: alpha1-adrenoceptor (non-selective) CEREP ligand profiling. In kind it is protein assay. As to conditions: Compound concentration 10.0 uM.
Data set [15] addresses Muscarinic acetylcholine receptor M5 (Homo sapiens) (UniProt P08912). As to the kind of experiment: Muscarinic M5 receptors (h) CEREP ligand profiling. The conditions noted are these: Compound concentration 10.0 uM.
Data set [16] addresses D(1B) dopamine receptor (Homo sapiens) (UniProt P21918). As to the kind of experiment: Dopamine D5 receptor (h) CEREP ligand profiling. The conditions noted are these: Compound concentration 10.0 uM.
Data set [17] addresses Sigma non-opioid intracellular receptor 1 (Homo sapiens, UniProt Q99720). As to the kind of experiment: sigma-Receptor (non-selective) CEREP ligand profiling. As to conditions: Compound concentration 10.0 uM.
For data set [18], the target named is 5-hydroxytryptamine receptor 2C (Homo sapiens) (UniProt P28335). As to the kind of experiment: 5-Hydroxytryptamine2C (h) CEREP ligand profiling. As to conditions: Compound concentration 10.0 uM.
In data set [19] the target is Substance-K receptor (Homo sapiens) (UniProt P21452). As to the kind of experiment: Neurokinin A receptor (h) CEREP ligand profiling. The conditions noted are these: Compound concentration 10.0 uM.
The target of data set [20] is P2Y receptor (Homo sapiens) (UniProt Q9H244+P51582+P47900+P41231+Q15391+Q15077+Q96G91+Q9BPV8). As to the kind of experiment: P2Y-purinergic receptor CEREP ligand profiling. Type of data set: protein assay. The conditions noted are these: Compound concentration 10.0 uM.
Data set [21] addresses Serine/threonine-protein kinase SIK1 (Homo sapiens, UniProt P57059). The experiment in a line: Inhibition of SIK1 at compound concentration of 10.0 uM using the ScanMax (DiscoverX).
The target in data set [22] is 5-hydroxytryptamine receptor 1B (Homo sapiens) (UniProt P28222). The experiment in a line: 5-Hydroxytryptamine1B CEREP ligand profiling. As to conditions: Compound concentration 10.0 uM.
For data set [23], the target named is Endothelin receptor type B (Homo sapiens) (UniProt P24530). As to conditions: Compound concentration 10.0 uM.
Sequence of Endothelin receptor type B (Homo sapiens) (P24530 whole entry): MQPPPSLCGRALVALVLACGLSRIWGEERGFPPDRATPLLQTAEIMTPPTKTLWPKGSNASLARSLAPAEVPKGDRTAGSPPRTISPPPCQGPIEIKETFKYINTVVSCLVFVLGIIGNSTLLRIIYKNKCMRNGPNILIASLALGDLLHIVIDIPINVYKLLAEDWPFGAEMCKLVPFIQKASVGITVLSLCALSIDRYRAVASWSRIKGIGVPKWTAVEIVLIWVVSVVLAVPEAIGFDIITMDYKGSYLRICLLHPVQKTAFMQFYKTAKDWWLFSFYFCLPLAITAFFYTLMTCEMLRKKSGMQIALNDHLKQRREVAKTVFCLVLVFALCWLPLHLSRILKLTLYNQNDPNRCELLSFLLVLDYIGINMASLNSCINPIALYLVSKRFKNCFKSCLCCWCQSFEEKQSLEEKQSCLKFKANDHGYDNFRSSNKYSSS
The target in data set [24] is GABA-A receptor; anion channel (Homo sapiens) (UniProt P14867+P47870+P18507+P28472+P48169+Q99928+Q9UN88+P34903+O00591+O14764+Q8N1C3+P18505+P78334+P47869+P31644+Q16445). As to the kind of experiment: Benzodiazepine (central) CEREP ligand profiling. Type of data set: protein-complex assay. The conditions noted are these: Compound concentration 10.0 uM.
For data set [25], the target named is Muscarinic acetylcholine receptor M4 (Homo sapiens) (UniProt P08173). The conditions noted are these: Compound concentration 10.0 uM.
Sequence of Muscarinic acetylcholine receptor M4 (Homo sapiens) (P08173 whole entry): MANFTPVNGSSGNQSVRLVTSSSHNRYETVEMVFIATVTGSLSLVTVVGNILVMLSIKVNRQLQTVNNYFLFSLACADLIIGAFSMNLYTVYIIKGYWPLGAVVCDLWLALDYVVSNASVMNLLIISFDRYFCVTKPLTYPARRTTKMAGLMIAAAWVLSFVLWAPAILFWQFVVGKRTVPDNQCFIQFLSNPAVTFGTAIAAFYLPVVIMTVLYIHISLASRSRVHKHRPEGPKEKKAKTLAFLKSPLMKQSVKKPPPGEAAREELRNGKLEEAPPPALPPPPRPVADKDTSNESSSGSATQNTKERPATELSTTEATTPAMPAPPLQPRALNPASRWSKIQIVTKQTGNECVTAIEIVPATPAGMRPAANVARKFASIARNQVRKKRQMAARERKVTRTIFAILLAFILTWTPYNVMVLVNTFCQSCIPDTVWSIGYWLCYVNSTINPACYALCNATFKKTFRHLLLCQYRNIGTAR
Data set [26] addresses Muscarinic acetylcholine receptor M1 (Homo sapiens) (UniProt P11229). As to the kind of experiment: Muscarinic M1 receptors (h) CEREP ligand profiling. The conditions noted are these: Compound concentration 10.0 uM.
The target in data set [27] is 5-hydroxytryptamine receptor 6 (Homo sapiens) (UniProt P50406). The experiment in a line: 5-Hydroxytryptamine6 (h) CEREP ligand profiling. The conditions noted are these: Compound concentration 10.0 uM.
The target of data set [28] is Adrenergic receptor alpha-2 (Homo sapiens) (UniProt P08913+P18825+P18089). The experiment in a line: alpha2-adrenoceptor (non-selective) CEREP ligand profiling. Type of data set: protein assay. As to conditions: Compound concentration 10.0 uM.
For another data set, the target named is Mu-type opioid receptor (Homo sapiens, UniProt P35372). As to the kind of experiment: mu-Opioid receptor (h) CEREP ligand profiling. The conditions noted are these: Compound concentration 10.0 uM.
Data set [29] concerns the target Translocator protein (Rattus norvegicus) (UniProt P16257). The experiment in a line: Benzodiazepine (peripheral) CEREP ligand profiling. As to conditions: Compound concentration 10.0 uM.
Data set [30] deals with Bombesin receptor (Homo sapiens) (UniProt P28336+P32247+P30550). The experiment in a line: Bombesin receptor CEREP ligand profiling. In kind it is protein assay. As to conditions: Compound concentration 10.0 uM.
The next data set deals with Sodium channel (site 1) (Homo sapiens, UniProt P35498+P35499+Q01118+Q14524+Q15858+Q99250+Q9NY46+Q9UI33+Q9UQD0+Q9Y5Y9). As to the kind of experiment: Na+ channel (site1) CEREP ligand profiling. Type of data set: protein assay. As to conditions: compound concentration 10 uM.
Data set [31] has as its target P2X receptor (Rattus norvegicus) (UniProt P51579+P49653+P51578+Q64663+P47824+P51577+P49654). As to the kind of experiment: P2X-purinergic receptor CEREP ligand profiling. The conditions noted are these: Compound concentration 10.0 uM. Type of data set: protein assay.
In data set [32] the target is 5-hydroxytryptamine receptor 1A (Homo sapiens, UniProt P08908). The experiment in a line: GPCRScan assay: inhibition of 5-HT1A. The arrangement: radioligand conc. used [nm] 0.5 – 1.0, parental cells stable CHO.
Sequence of 5-hydroxytryptamine receptor 1A (P08908 whole entry): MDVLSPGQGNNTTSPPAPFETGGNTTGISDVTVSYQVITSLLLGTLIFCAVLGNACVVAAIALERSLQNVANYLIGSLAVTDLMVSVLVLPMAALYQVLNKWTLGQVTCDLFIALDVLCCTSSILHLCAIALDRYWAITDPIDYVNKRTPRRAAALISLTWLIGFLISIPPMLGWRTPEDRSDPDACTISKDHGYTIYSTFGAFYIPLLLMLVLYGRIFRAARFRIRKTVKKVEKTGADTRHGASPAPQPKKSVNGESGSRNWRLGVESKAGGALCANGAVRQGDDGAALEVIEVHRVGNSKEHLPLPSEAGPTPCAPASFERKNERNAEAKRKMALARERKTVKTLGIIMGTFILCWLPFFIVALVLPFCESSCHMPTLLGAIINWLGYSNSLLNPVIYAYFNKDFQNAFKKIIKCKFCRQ
For data set [33], the target named is Muscarinic acetylcholine receptor M5 (Homo sapiens) (UniProt P08912). The conditions noted are these: Compound concentration 10.0 uM.
Sequence of Muscarinic acetylcholine receptor M5 (Homo sapiens) (P08912 whole entry): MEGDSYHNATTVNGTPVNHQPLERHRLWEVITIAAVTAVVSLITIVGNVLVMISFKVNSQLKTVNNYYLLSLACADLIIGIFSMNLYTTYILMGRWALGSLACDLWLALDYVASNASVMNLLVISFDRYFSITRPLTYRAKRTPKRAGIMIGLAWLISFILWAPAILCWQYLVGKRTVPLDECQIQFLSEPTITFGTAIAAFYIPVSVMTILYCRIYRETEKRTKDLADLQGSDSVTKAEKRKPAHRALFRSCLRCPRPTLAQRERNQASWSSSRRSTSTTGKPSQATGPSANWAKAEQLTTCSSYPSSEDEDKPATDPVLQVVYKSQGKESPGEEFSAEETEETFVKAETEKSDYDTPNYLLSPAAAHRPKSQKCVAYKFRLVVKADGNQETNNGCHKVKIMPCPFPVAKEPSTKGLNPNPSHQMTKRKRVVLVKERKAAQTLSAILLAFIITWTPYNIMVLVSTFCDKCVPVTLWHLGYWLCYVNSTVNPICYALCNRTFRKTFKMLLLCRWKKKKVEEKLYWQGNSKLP
In data set [34] the target is Kappa-type opioid receptor (Homo sapiens, UniProt P41145). The experiment in a line: GPCRScan assay: inhibition of KOR. Set-up: radioligand conc. used [nm] 0.6 – 1.2, parental cells stable HEK.
Sequence of Kappa-type opioid receptor (P41145 whole entry): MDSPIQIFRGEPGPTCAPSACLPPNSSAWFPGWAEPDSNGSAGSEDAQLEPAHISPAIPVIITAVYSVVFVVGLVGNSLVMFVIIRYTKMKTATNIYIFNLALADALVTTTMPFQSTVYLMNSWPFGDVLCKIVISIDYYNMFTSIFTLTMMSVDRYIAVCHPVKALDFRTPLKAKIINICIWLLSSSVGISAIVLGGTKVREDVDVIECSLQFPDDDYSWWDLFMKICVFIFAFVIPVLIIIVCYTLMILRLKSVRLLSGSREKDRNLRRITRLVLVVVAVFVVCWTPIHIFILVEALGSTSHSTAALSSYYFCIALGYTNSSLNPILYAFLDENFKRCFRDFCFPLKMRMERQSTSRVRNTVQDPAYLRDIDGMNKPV
Another data set addresses D(4) dopamine receptor (Homo sapiens, UniProt P21917). As to the kind of experiment: GPCRScan assay: inhibition of D4. The arrangement: radioligand conc. used [nm] 0.6 – 1.7, parental cells Stable HEK.
For data set [35], the target named is Muscarinic acetylcholine receptor M1 (Homo sapiens) (UniProt P11229). As to conditions: Compound concentration 10.0 uM.
Sequence of Muscarinic acetylcholine receptor M1 (Homo sapiens) (P11229 whole entry): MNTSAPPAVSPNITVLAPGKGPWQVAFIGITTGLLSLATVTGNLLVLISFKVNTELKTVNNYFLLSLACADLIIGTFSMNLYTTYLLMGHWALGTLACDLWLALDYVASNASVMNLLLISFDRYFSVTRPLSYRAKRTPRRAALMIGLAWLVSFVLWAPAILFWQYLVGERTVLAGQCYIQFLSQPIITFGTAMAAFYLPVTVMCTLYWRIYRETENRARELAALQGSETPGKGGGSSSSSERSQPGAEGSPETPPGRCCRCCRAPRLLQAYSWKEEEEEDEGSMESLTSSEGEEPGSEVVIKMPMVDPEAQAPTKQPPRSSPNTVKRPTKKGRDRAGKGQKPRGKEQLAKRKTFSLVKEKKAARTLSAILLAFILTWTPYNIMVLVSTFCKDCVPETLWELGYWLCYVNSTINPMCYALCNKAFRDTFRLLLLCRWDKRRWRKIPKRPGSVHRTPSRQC

Sequence of Sigma non-opioid intracellular receptor 1 (Q99720 whole entry): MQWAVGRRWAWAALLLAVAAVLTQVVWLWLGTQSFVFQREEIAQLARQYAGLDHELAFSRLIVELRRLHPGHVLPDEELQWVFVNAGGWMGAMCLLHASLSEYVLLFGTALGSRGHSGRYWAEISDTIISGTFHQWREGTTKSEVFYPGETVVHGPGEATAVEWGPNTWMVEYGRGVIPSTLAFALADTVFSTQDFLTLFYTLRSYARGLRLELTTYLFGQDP
Sequence of D(3) dopamine receptor (Homo sapiens) (P35462 whole entry): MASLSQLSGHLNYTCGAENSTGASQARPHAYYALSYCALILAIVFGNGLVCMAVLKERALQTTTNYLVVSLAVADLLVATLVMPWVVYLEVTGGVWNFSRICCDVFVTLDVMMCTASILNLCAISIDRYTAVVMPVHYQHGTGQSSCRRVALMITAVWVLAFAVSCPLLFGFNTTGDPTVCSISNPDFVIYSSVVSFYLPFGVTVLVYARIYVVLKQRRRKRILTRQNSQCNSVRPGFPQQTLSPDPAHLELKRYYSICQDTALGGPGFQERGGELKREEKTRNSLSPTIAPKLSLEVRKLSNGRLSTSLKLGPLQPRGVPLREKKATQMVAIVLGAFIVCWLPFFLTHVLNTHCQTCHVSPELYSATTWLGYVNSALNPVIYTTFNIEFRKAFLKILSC
Sequence of Translocator protein (Rattus norvegicus) (P16257 whole entry, looked up): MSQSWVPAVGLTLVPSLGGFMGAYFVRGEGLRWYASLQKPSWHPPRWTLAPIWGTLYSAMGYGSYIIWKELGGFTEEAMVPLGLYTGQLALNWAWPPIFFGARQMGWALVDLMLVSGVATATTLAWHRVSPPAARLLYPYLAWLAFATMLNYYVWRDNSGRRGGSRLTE

For the compound `CCCCN(CCCC)C(=O)CN1C[C@H](c2cc(OC)c3c(c2)OCO3)[C@@H](C(=O)O)[C@@H]1CC(C)(C)CCC` [ABT-546], the inhibition in data set [1] is -6.6%; at Histamine H1 receptor, under 10%; in data set [2], under 10%; in data set [3] it was under 10%; in data set [4], under 10%; in data set [5] it was under 10%. Further, the inhibition in [6], in [7], in data set [8], in [9], in data set [11] and in data set [13] was under 10% throughout. Also, the inhibition in data set [14], in data set [15], in [16], in data set [17], in data set [18] and in [19] was under 10% each time. The inhibition in data set [20] was under 10%; in data set [22] it was under 10%; in data set [23], 56%; in data set [24], under 10%; in data set [25], 8.5%; in data set [26], under 10%. Also, the inhibition in data set [27] was under 10%; in data set [28], 18%; on Mu-type opioid receptor it was 17%; in data set [29], under 10%; in data set [30] it was under 10%; in data set [31], 37%. Further, the Kd in [10] and in data set [21] was > 10 µM (not active) throughout. In addition, the inhibition at 10 µM in data set [12] was < 10% (not active); at Sodium channel (site 1), 22% (not active).

In the case of `CCCCN(CCCC)C(=O)CN1C[C@@H](c2cc(OC)c3c(c2)OCO3)[C@H](C(=O)O)[C@H]1CC(C)(C)CCC` [A-545], the pKi in data set [32] is 6.72; in [34] (read-out: Ki), 5.56; at D(4) dopamine receptor, 8.26. The inhibition in [33] is 1.1%; in data set [35] it was 12.4%. The Ki in data set [34] (read-out: pKi (converted)) is 2.82 µM.
